ChEMBL document CHEMBL4251601 (Eur J Med Chem, 2018)

How the values were obtained:
[1] = target: Mitogen-activated protein kinase 14 (Homo sapiens) (UniProt Q16539); assay: Inhibition of recombinant human full length GST-tagged p38alpha expressed in Escherichia coli at 1 uM by Z'-Lyte assay relative to control
[2] = target: Casein kinase I isoform alpha (Homo sapiens) (UniProt P48729); assay: Inhibition of recombinant full length human GST-tagged CK1alpha expressed in baculovirus expression system at 1 uM by Z'-Lyte assay relative to control
[3] = target: Tyrosine-protein kinase SYK (Homo sapiens) (UniProt P43405); assay: Inhibition of recombinant human full length GST-tagged SYK expressed in baculovirus expression system at 0.1 uM by Z'-Lyte assay relative to control
[4] = Half life in CD-1 mouse brain at 10 mg/kg, po administered as single dose by LC-MS/MS analysis; assay type: ADME, organism-based
[5] = target: Beta-adrenergic receptor kinase 1 (Homo sapiens) (UniProt P25098); assay: Inhibition of recombinant human full length His-tagged GRK2 expressed in baculovirus expression system at 1 uM by Z'-Lyte assay relative to control
[6] = target: Epidermal growth factor receptor (Homo sapiens) (UniProt P00533); assay: Inhibition of recombinant human GST-tagged EGFR cytoplasmic domain expressed in baculovirus expression system at 1 uM by TR-FRET assay relative to control
[7] = Half life in ICR mouse at 2 mg/kg, iv administered as single dose by LC-MS/MS analysis; assay type: ADME, organism-based; conditions: in vivo
[8] = target: RAC-gamma serine/threonine-protein kinase (Homo sapiens) (UniProt Q9Y243); assay: Inhibition of recombinant full length human His-tagged AKT3 expressed in baculovirus expression system at 0.1 uM by TR-FRET assay relative to control
[9] = AUC (0 to infinity) in CD-1 mouse plasma at 10 mg/kg, po administered as single dose by LC-MS/MS analysis; assay type: ADME, organism-based; set-up: dose 10 mg/kg, time infinity, route oral
[10] = target: CDK6/cyclin D3 (Homo sapiens) (UniProt P30281+Q00534); assay: Inhibition of recombinant full length human GST-tagged […] expressed in baculovirus expression system at 0.1 uM by TR-FRET assay relative to control
[11] = Unbound AUC (0 to 24 hrs) in CD-1 mouse brain at 10 mg/kg, po administered as single dose by LC-MS/MS analysis; assay type: ADME, organism-based; conditions: in vivo
[12] = target: Ephrin type-B receptor 2 (Homo sapiens) (UniProt P29323); assay: Inhibition of recombinant human GST-tagged EPHB2 cytoplasmic domain (616 to 884 residues) expressed in baculovirus expression system at 1 uM by Z'-Lyte assay relative to control
[13] = target: Casein kinase I isoform alpha (Homo sapiens) (UniProt P48729); assay: Inhibition of recombinant full length human GST-tagged CK1alpha expressed in baculovirus expression system at 0.1 uM by Z'-Lyte assay relative to control
[14] = target: Cyclin-dependent kinase 4/cyclin D1 (Homo sapiens) (UniProt P11802+P24385); assay: Inhibition of recombinant full length human GST-tagged CDK4/Cyclin-D1 expressed in baculovirus expression system at 1 uM by TR-FRET assay relative to control
[15] = target: Misshapen-like kinase 1 (Homo sapiens) (UniProt Q8N4C8); assay: Inhibition of recombinant human GST-tagged MINK (1 to 320 residues) expressed in baculovirus expression system at 1 uM by Z'-Lyte assay relative to control
[16] = Half life in CD-1 mouse plasma at 10 mg/kg, po administered as single dose by LC-MS/MS analysis; assay type: ADME, organism-based
[17] = target: Tyrosine-protein kinase Srms (Homo sapiens) (UniProt Q9H3Y6); assay: Inhibition of recombinant human full length GST-tagged SRMS expressed in baculovirus expression system at 0.1 uM by TR-FRET assay relative to control
[18] = target: Protein-tyrosine kinase 6 (Homo sapiens) (UniProt Q13882); assay: Inhibition of recombinant human full length His-tagged PTK6 expressed in baculovirus expression system at 0.1 uM by TR-FRET assay relative to control
[19] = target: Mitogen-activated protein kinase 8 (Homo sapiens) (UniProt P45983); assay: Inhibition of recombinant human full length His-tagged JNK1 expressed in baculovirus expression system at 0.1 uM by Z'-Lyte assay relative to control
[20] = target: Beta-adrenergic receptor kinase 1 (Homo sapiens) (UniProt P25098); assay: Inhibition of recombinant human full length His-tagged GRK2 expressed in baculovirus expression system at 0.1 uM by Z'-Lyte assay relative to control
[21] = target: Tyrosine-protein kinase BTK (Homo sapiens) (UniProt Q06187); assay: Inhibition of recombinant full length human His-tagged BTK expressed in baculovirus expression system at 1 uM by TR-FRET assay relative to control
[22] = AUC (0 to 48 hrs) in CD-1 mouse plasma at 10 mg/kg, po administered as single dose by LC-MS/MS analysis; assay type: ADME, organism-based; set-up: time < 48 hr, dose 10 mg/kg, route oral
[23] = target: Vascular endothelial growth factor receptor 2 (Homo sapiens) (UniProt P35968); assay: Inhibition of recombinant human His-tagged KDR cytoplasmic domain expressed in baculovirus expression system at 0.1 uM by Z'-Lyte assay relative to control
[24] = target: Tyrosine-protein kinase JAK3 (Homo sapiens) (UniProt P52333); assay: Inhibition of recombinant human GST-tagged JAK3 expressed in baculovirus expression system at 0.1 uM by TR-FRET assay relative to control
[25] = Half life in Sprague-Dawley rat at 5 mg/kg, po administered as single dose by LC-MS/MS analysis; assay type: ADME, organism-based; conditions: in vivo
U-87 MG [26] = assay: Antitumor activity against luciferase-fused human U87MG cells orthotopically xenografted in nude mouse assessed as increase in mouse life span at 6.25 mg/kg, po qd for 5 weeks relative to control; assay type: functional, U-87MG ATCC; conditions: 840 h
[27] = target: Aurora kinase B (Homo sapiens) (UniProt Q96GD4); assay: Inhibition of recombinant full length human His-tagged AURKB expressed in baculovirus expression system at 0.1 uM by Z'-Lyte assay relative to control
U-87 MG [28] = assay: Antitumor activity against luciferase-fused human U87MG cells orthotopically xenografted in nude mouse assessed as increase in mouse life span at 3.125 mg/kg, po qd for 5 weeks relative to control; assay type: functional, U-87MG ATCC; conditions: 840 h
[29] = target: RAC-beta serine/threonine-protein kinase (Homo sapiens) (UniProt P31751); assay: Inhibition of recombinant full length human His-tagged AKT2 expressed in baculovirus expression system at 0.1 uM by TR-FRET assay relative to control
[30] = target: G protein-coupled receptor kinase 4 (Homo sapiens) (UniProt P32298); assay: Inhibition of recombinant human full length GST-tagged GRK4 expressed in baculovirus expression system at 0.1 uM by Z'-Lyte assay relative to control
[31] = target: Platelet-derived growth factor receptor beta (Homo sapiens) (UniProt P09619); assay: Inhibition of recombinant human His-tagged PDGFRbeta cytoplasmic domain expressed in baculovirus expression system at 1 uM by Z'-Lyte assay relative to control

Chain of Beta-adrenergic receptor kinase 1 (Homo sapiens) (P25098 whole entry, the tested form may be a part): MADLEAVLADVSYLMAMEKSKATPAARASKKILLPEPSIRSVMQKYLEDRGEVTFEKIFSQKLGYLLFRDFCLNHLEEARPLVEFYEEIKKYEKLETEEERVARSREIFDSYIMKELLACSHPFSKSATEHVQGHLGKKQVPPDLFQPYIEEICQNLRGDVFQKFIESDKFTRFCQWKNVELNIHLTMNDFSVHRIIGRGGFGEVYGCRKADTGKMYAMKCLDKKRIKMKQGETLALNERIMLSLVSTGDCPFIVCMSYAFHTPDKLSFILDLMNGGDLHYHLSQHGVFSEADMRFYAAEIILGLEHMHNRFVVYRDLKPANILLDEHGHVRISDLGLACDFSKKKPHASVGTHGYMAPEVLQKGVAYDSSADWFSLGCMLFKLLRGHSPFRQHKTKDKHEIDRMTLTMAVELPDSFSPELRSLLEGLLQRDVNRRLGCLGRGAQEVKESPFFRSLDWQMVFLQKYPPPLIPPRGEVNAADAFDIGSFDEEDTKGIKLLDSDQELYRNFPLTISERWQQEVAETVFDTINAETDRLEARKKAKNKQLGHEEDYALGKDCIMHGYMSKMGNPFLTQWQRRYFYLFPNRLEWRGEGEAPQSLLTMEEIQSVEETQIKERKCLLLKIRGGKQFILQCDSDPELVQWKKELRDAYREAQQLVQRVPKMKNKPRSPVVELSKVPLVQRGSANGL
Chain of Casein kinase I isoform alpha (Homo sapiens) (P48729 2-337 limits assumed): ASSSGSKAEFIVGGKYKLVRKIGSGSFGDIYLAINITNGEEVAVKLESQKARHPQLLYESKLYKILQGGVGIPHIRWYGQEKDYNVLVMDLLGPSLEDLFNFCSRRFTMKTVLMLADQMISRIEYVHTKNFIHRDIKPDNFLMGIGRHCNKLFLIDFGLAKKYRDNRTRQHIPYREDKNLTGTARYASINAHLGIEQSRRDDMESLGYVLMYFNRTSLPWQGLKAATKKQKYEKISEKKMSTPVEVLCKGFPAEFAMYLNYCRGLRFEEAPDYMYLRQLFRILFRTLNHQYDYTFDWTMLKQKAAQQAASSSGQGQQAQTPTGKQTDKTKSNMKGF
Chain of Tyrosine-protein kinase BTK (Homo sapiens) (Q06187 whole entry): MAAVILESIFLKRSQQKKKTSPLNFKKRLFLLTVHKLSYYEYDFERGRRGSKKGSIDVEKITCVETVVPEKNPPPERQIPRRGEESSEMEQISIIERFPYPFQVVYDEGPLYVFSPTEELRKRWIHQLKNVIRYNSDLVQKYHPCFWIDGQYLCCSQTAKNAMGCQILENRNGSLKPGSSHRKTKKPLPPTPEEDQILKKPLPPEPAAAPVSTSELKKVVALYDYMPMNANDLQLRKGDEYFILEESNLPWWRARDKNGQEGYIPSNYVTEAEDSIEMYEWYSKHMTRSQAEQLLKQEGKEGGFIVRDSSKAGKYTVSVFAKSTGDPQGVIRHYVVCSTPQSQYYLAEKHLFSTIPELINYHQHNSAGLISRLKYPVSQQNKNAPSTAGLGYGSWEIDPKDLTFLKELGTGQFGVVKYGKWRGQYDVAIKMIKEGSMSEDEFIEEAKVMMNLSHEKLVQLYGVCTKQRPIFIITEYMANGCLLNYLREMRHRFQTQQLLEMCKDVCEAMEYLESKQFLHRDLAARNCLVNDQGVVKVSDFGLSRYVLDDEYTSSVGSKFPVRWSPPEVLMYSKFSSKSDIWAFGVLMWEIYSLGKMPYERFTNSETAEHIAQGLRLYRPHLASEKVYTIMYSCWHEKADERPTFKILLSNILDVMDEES
Chain of Ephrin type-B receptor 2 (Homo sapiens) (P29323 whole entry, the tested form may be a part, canonical isoform): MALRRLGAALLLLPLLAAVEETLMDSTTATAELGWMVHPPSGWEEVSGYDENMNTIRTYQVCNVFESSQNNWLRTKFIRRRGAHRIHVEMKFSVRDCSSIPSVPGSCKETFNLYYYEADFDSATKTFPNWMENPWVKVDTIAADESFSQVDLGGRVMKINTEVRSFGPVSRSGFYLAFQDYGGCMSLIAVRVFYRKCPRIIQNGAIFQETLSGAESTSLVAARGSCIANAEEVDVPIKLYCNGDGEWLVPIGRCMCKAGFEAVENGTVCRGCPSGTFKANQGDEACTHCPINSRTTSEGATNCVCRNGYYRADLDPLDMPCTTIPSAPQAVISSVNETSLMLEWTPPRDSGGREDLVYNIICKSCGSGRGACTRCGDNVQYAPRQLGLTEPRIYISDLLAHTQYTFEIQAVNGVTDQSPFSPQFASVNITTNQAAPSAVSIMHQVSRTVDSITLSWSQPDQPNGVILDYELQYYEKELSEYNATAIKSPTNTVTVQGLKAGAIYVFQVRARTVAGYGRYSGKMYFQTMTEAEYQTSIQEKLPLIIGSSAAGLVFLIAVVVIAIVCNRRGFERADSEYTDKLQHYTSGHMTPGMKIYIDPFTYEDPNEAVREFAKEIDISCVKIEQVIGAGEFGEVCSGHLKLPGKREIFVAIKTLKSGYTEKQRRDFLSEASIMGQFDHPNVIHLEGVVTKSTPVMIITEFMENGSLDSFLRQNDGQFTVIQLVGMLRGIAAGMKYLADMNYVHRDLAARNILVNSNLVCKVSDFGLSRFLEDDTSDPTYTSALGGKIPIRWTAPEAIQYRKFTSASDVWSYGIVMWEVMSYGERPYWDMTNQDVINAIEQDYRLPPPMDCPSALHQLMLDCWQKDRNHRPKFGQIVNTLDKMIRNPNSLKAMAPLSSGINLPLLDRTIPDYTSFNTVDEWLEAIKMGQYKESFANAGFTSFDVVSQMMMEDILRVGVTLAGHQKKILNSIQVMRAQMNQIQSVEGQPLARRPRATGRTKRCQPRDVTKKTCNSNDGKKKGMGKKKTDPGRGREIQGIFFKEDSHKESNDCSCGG
Chain of Aurora kinase B (Homo sapiens) (Q96GD4 whole entry, the tested form may be a part): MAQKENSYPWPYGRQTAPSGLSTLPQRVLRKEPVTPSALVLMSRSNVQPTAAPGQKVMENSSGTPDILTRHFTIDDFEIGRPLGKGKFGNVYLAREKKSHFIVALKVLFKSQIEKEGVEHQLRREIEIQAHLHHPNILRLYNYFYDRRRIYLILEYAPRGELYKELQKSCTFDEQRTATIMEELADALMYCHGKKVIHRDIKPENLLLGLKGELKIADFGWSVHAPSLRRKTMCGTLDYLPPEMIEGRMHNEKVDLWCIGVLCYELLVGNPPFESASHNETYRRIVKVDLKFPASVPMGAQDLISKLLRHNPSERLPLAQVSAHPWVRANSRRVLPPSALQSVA
Chain of Vascular endothelial growth factor receptor 2 (Homo sapiens) (P35968 whole entry, the tested form may be a part): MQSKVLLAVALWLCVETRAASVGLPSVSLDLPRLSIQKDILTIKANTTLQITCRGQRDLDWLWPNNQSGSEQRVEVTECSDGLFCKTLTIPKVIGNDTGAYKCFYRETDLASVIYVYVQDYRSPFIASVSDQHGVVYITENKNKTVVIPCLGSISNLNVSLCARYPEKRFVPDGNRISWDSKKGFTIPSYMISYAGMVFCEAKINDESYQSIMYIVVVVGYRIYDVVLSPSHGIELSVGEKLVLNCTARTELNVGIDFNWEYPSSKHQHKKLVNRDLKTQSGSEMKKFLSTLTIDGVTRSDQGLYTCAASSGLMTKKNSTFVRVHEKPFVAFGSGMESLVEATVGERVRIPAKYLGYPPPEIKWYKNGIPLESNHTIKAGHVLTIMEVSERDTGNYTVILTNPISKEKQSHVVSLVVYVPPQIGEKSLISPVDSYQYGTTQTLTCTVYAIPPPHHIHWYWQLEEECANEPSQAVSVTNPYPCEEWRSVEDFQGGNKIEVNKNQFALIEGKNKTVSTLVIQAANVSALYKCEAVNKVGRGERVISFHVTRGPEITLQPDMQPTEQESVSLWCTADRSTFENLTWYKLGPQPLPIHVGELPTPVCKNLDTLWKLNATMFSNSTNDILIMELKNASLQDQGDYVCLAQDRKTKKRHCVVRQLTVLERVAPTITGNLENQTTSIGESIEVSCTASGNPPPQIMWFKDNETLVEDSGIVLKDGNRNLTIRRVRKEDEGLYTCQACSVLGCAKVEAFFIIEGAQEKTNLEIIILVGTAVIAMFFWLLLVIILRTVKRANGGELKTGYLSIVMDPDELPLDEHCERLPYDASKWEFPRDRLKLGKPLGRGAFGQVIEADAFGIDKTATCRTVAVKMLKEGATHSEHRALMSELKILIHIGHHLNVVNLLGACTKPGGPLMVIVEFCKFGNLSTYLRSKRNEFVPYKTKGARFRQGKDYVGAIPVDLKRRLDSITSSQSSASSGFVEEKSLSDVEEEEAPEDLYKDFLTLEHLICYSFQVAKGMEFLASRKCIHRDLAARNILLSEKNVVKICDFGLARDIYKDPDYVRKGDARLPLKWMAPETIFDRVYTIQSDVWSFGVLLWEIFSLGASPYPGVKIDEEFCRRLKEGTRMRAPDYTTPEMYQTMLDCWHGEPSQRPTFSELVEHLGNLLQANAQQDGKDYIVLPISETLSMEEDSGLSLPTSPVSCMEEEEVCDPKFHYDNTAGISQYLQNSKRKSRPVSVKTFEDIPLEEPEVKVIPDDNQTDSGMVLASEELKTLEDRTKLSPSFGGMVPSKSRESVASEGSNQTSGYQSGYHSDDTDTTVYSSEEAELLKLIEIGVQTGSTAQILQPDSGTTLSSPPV
Chain of RAC-gamma serine/threonine-protein kinase (Homo sapiens) (Q9Y243 whole entry): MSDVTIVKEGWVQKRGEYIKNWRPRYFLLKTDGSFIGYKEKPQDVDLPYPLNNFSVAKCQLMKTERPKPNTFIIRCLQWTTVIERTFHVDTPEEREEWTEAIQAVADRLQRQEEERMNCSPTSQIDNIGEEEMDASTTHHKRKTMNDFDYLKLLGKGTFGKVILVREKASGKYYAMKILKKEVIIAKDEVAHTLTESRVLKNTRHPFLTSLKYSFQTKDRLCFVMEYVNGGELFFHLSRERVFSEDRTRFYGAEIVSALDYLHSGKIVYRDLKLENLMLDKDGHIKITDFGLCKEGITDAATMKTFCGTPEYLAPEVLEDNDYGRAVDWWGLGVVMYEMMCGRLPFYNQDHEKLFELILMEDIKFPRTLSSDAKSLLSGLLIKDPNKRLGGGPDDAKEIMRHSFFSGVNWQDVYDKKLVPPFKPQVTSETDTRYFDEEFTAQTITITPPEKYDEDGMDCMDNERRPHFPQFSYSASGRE

SMILES: CC1=Nc2c(F)cc(-c3nc(Nc4ccc(C5CCN(C)CC5)cn4)ncc3F)cc2C12CCCC2 [CROZBACICLIB]
- inhibition [1]: -8%
- inhibition [2]: 5%
- inhibition [3]: 5%
- half-life [4]: 6.38 h
- inhibition [5]: -1%
- inhibition [6]: 31%
- half-life [7]: 9.1 h
- inhibition [8]: 10%
- AUC(0-inf) [9]: 9110 ng·h/mL
- inhibition [10]: 100%
- fAUC [11]: 14.87 ng·h/g
- inhibition [12]: 3%
- inhibition [13]: -3%
- inhibition [14]: 107%
- inhibition [15]: 90%
- half-life [16]: 6.03 h
- inhibition [17]: 20%
- inhibition [18]: 14%
- inhibition [19]: 6%
- inhibition [20]: -2%
- inhibition [21]: 5%
- AUC(0-t) at 48 h [22]: 9060 ng·h/mL
- inhibition [23]: 2%
- inhibition [24]: 56%
- half-life [25]: 8.5 h
- ILS at 6.25 mg/kg (U-87 MG [26]): 45%
- inhibition [27]: 0%
- ILS at 3.125 mg/kg (U-87 MG [28]): 28%
- inhibition [29]: 1%
- inhibition [30]: 0%
- inhibition [31]: 20%
